From patent publication US4956355A, “Agents for the arrest and therapy of retroviral infections” (Colthurst Limited, priority 1987, dated 1990)

What was measured:
normal human macrophages = assay: Nonspecific toxicity to normal human macrophages; assay type: cell-based; conditions: 10^-4 to 10^-8 molar
Description: 7. Analysis of nonspecific toxicity to the target cells with Compounds A and B. The VB, H9 and HXB cell lines were exposed to different concentrations of Compounds A and B as were normal human macrophages for the length of time the drug was in contact with each cell line as described in the above assays. Cell numbers were counted, and live versus dead were determined by Trypan blue exclusion assays. These tests were required to determine a therapeutic index between nonspecific toxic effects on the described cells, compared with potential effective antiviral effects in vitro (Example 6).

NADH oxidase = conditions: cited from earlier work
[1] = Safety of dehydroepiandrosterone in subjects; assay type: in vivo, human
Description: (§1) Twelve patients all of whom were sero-positive for HIV and had been diagnosed as suffering from AIDS were treated with DHEA for up to six months. The DHEA was administered in the form of hard gelatin capsules containing 100 mg of DHEA and at a rate of 100 mg to 600 mg per day. The vast majority being on 500 mg per day in divided doses. The patients were all homosexual or bisexual males with an average age of 34.5 years and an average weight of 69.6 kg.

HIV in human macrophages [2] = assay: Inhibition of cytoplasmic HIV p24 antigen in HIV-infected macrophages; assay type: cell-based; conditions: FIG. 4
Description: (§2) 1. […] All three viral strains were grown in the Tissue Culture Laboratory of the AIDS Activity Division of San Francisco General Hospital where titers of […] infectious units per ml were routinely achieved.
(§3) 2. Source of cells: The VB cell line used in Example 1 is a T lymphoma cell line that is highly susceptible to infection with HIV, and expresses high levels of cell surface CD4 molecules. This cell line forms syncytia within two days after infection with all strains of HIV tested to date. […] This is used to quantitate infection in the absence of syncytial formation, infection being quantitated by immunofluorescence assays. The HXB/H9 cell line (Example 6) is an H9 cell population that chronically produces the HTLV-IIIB strain of HIV and is utilised in experiments testing antiviral effects on chronically infected cell lines. Human macrophages were prepared from peripheral blood mononuclear cells either obtained from the blood bank as a buffy coat, or as a leukophoresis preparation. Crowe et al. supra have devised an assay system that allows quantitation of HIV infection, and inhibition of infection using immunocytofluorographic analysis. In order to quantitate HIV infection in macrophages, they grow macrophages in Teflon (Trade Mark) culture vessels which maintain macrophages in suspension in vitro culture for up to six months. Cell surface and cytoplasmic immunofluorescence staining is then performed to quantitate antigens in macrophages by flow cytometry.
3. Flow cytometry: An Ortho Cytofluorgraf II-S (Trade Mark) that has a biohazard containment flow cell was used for analysis of HIV infected samples. HIV p24 antigens were detected utilizing a mouse monoclonal anti-p24 (du Pont), and mouse antibodies were identified utilizing an FITC conjugated goat anti-mouse IgG. […]
The cells from the experiment described in Example 3 were analysed, and the cytoplasm was analysed for the presence of HIV p24 to directly test whether HIV p24 antigen production was inhibited within those infected cells. […]

HIV in HXB/H9 cell line = assay: Antiviral testing of chronically HIV infected cell line HXB; assay type: cell-based; conditions: other than killing with compound B at 10^-4 molar
Description: as §2
as §3, with “Human macrophages were prepared from peripheral blood mononuclear cells either obtained from the blood bank as a buffy coat, or as a leukophoresis preparation.” left out, “cytometry. […]” for “cytometry.”

[3] = system: human peripheral blood mononuclear (PBM) cells infected with Epstein-Barr virus; conditions: cited from earlier work
complement activation = conditions: cited from earlier work
[4] = system: peripheral blood lymphocytes; assay: Nonspecific toxicity to peripheral blood lymphocytes; assay type: cell-based, human
HIV = assay: Use of dehydroepiandrosterone in AIDS therapy, twelve patients; assay type: in vivo, human patients
Description: as §1
Past and present HIV clinical manifestations included: unexplained diarrhoea, Kaposis Sarcoma, Herpes Zoster, Oral Candidiasis, Lymphadenopathy, Oral Hairy Leucoplakia, involuntary weight loss, dermal mycoses and Stapholococcal skin infections.
All of the patients were in an advanced stage of AIDS at the commencement of the trial and normally further deterioration of their condition, or even death, would have been expected over the six month period of the trial. […] Patient 7 gained 8 kg over five months.

[5] = murine model of SLE; cited from earlier work
mitotic activity = conditions: cited from earlier work
HIV in human macrophages [6] = assay: Inhibition of HIV production in normal human macrophages (supernatant p24, acute infection); assay type: cell-based
Description: as §2, §3
4. HIV soluble p24 antigen detection: Soluble p24 antigens were measured with the Abbott HIV antigen detection system.
(c) To test whether Compounds A and B were effective at blocking acute infection of macrophages, macrophages from Teflon cultures were exposed at a multiplicity of 1 to HIV-DV in the presence or absence of various concentrations of drug (Examples 3-5). Normally, HIV expression peaks in human macrophages at approximately ten days after initial infection. Therefore, after infection for one hour at room temperature, followed by a wash and resuspension of the macrophages in various drug concentrations, macrophages were stained for the presence of p24 antigen at day ten. Culture supernatants from these macrophages were assayed for the presence of soluble p24, and infectious virus as described above.
To test whether compounds A and B might be active at inhibiting infection of normal human macrophages, a spectrum of drug concentrations were tested for inhibition of acute infection, and inhibition of HIV expression in chronically infected macrophages. […] After acute infection (one hour) cells were incubated in various concentrations of compounds A and B, and 7 days after the initial infection supernatants were harvested for p24 antigen quantitation. […]

C[C@]12CC[C@H](O)CC1=CC[C@@H]1[C@@H]2CC[C@]2(C)C(=O)CC[C@@H]12 [A, dehydroepiandrosterone]
toxicity in normal macrophages (normal human macrophages): not appreciable toxicity
effect on NADH oxidase (NADH oxidase): inhibitory effect
toxicity in treatment of patients infected with HIV ([1]; general statement): virtual absence of toxicity
adverse physical, biochemical or hematological effects ([1]; twelve subjects, daily doses of up to 600 mg for up to six months): complete lack of adverse physical, biochemical or hematological effects
HIV p24 cytoplasmic antigen production (HIV in human macrophages [2]; 10^-4 molar, three donors): substantially inhibited
inhibiting HIV p24 antigen production within infected macrophages (HIV in human macrophages [2]; dilutions even at 10^-6 molar): active
inhibition of HIV production of cytopathic effects in chronically infected lymphoma cell line (HIV in HXB/H9 cell line): no specific inhibition
concentrations reducing colony forming ability [3]: 10 to 100 µM
complement activation (complement activation): inhibits complement activation
toxicity with the PBL cultures ([4]; 10^-4 and 10^-5 molar): No appreciable toxicity
toxicity to peripheral blood lymphocytes ([4]; 10^-4 to 10^-8 molar): nor was there appreciable toxicity
patients gaining weight (HIV; of twelve patients, up to six months): four
deterioration in condition (HIV; oral, 100 mg to 600 mg per day, up to six months, twelve advanced AIDS patients): no serious deterioration in condition
weight gain of Patient 7 (HIV; over five months): 8 kg
autoantibody formation [5]: prevents autoantibody formation
effect on mitotic activity (mitotic activity): inhibitory effect
decrease in production of HIV p24 antigens (supernatant) (HIV in human macrophages [6]; 10^-4 through 10^-8 molar, 7 days after acute infection, FIG. 3): approximately 50%
HIV infection and HIV expression in macrophages (HIV in human macrophages [6]; in vitro, reproducible, six separate monocyte/macrophage donors): inhibit HIV infection and HIV expression in macrophages
